These results are taken from patent US8946219B2, “Combination therapy with a compound acting as a platelet ADP receptor inhibitor” (Portola Pharmaceuticals, Inc., priority 2007, dated 2015).

For experiment [1], the system named is thrombosis on mouse mesenteric arteries. As to the kind of experiment: Mouse mesenteric artery thrombosis model, intravital microscopy, 10% FeCl3 (Example 14). Format: in vivo, C57B16J mice. The protocol: Thrombosis on mouse mesenteric arteries (shear rate 1000-1300 s^−1) was performed and recorded as previously described with minor modifications. (Andre, P., et al., Anticoagulants (thrombin inhibitors) and aspirin synergize with P2Y12 receptor antagonism in thrombosis. Circulation, 2003. 108(21): p. 2697-703.) Platelets were labeled in situ using rhodamine 6G (0.2 mg/mL) administered through the tail vein 10 min before visualization of the arteries. Vessel-wall injury was triggered by a 1×1-mm filter paper saturated with a 10% FeCl3 solution. After 5 minutes, the filter paper was removed and mesenteric arteries rinsed with warmed saline (37° C.). Platelet vessel-wall interactions were recorded for 40 additional min or until full occlusion occurred and persisted for more than 40 seconds. C57B16J mice were orally gavaged with vehicle control, compound A (0.83, 2.5, 7.5, 20, 60 mg/kg) or betrixaban (2, 4, 10 mg/kg) two hours prior to vascular injury. Thrombosis was analyzed in real time using Simple PCI software. (Andre, P., et al., P2Y12 regulates platelet adhesion/activation, thrombus growth, and thrombus stability in injured arteries. J Clin Invest, 2003. 112(3): p. 398-406.) The fluorescence intensity was recorded at a rate of 2 Hz for 40 minutes and plotted over time. Time to occlusion (cessation of blood flow) is analyzed.
Plasma concentrations of Compound A and betrixaban were determined on blood draw collected 2 min post-occlusion or 42 min after start of vascular injury.

For experiment [2], the system named is ADP induced platelet aggregation in human platelet rich plasma. Description: ADP induced platelet aggregation. Format: cell-based.
Experiment [3] relates to whole human blood perfused over type III collagen (thrombus formation). As to the kind of experiment: Real time perfusion chamber thrombosis assay (Example 3). Format: cell-based. The note with it: read-out: inhibition of thrombosis. An excerpt: The real time perfusion chamber assay couples the features of animal thrombosis models that use intravital microscopy to those of perfusion chamber technology in order to produce an assay suited to monitoring drug activity in clinical trials. This assay perfuses whole blood through capillaries at arterial rates of shear, exposing the blood to thrombogenic type III collagen. Platelets are labeled with a fluorescent dye (rhodamine 6 G) prior to perfusion such that analysis of the thrombus deposition can be performed by measurement of fluorescence intensity inside the perfusion chamber. Quantification is performed by analysis of the thrombus height (fluorescence intensity (number of pixels)/total area (μm^2)).

Experiment [4] has as its system platelet thrombus formation on collagen-coated capillary (type I collagen). Description: Perfusion assay, non-anticoagulated whole blood, type I collagen, 1000 s^−1 (Example 6). The note with it: Compound A alone at 10 μM. Format: cell-based, human. As to the method:
After perfusion the size of the platelet thrombus was measured by fluorescence.

Experiment [5] deals with thrombosis on mouse mesenteric arteries. Description: Mouse mesenteric artery thrombosis model, 5% FeCl3 (Example 13, present tense). It counts as in vivo, C57B16J mice. The note with it: for antithrombotic activity in the intravital microscopy thrombosis model in mice: other factor Xa inhibitors, expected. As to the method:
Thrombosis on mouse mesenteric arteries (shear rate 1000-1300 s^−1) is performed and recorded as previously described with minor modifications, as described in Andre, P. et al., Anticoagulants (thrombin inhibitors) and aspirin synergize with P2Y12 receptor antagonism in thrombosis. Circulation, 2003, 108(21):2697-703. Platelets are labeled in situ using rhodamine 6G (0.2 mg/mL) administered through the tail vein 10 mins before visualization of the arteries. Vessel-wall injury is triggered by a 1×1-mm filter paper saturated with a 5% FeCl3 solution. After 5 minutes, the filter paper is removed and mesenteric arteries rinsed with warmed saline (37° C.). Platelet vessel-wall interactions are recorded for 40 additional mins or until full occlusion occurs and persists for more than 40 seconds. C57B16J mice are orally gavaged with vehicle control, Compound A (7.5, 20, 60 mg/kg) or betrixaban (4, 40, 400 mg/kg) two hours prior to vascular injury. Thrombosis is analyzed in real time using Simple PCI software, as described in Andre, P. et al., P2Y12 regulates platelet adhesion/activation, thrombus growth, and thrombus stability in injured arteries. J Clin Invest, 2003, 112(3):398-406. The fluorescence intensity is recorded at a rate of 2 Hz for 40 minutes and plotted over time. Time to occlusion (cessation of blood flow) is analyzed.

In experiment [6] the test system is thrombin generation in platelet rich plasma. As to the kind of experiment: Platelet-initiated thrombin generation assay (Example 5). Format: cell-based, human. The protocol: Whole blood from healthy volunteer donors was collected by venipuncture and drawn into 3.2% trisodium citrate (Vacutainer, Becton Dickinson) for anticoagulation. Platelet rich plasma was prepared by centrifugation and the platelet count was adjusted to 150,000/μL. In a 96 well plate, platelets were activated by addition of convulxin (200 ng/mL) and incubation at 37° C. for 3 mins. Subsequent to platelet activation, thrombin generation was initiated by addition of 23 pM tissue factor (Innovin, Dade Behring) and 15 mM calcium. Thrombin activity was monitored by cleavage of the specific fluorogenic substrate (Z-gly-gly-arg-AMC, Bachem) in a fluorescence plate reader.

Experiment [7] has as its system thrombus formation under arterial shear conditions. Description: Perfusion assay, blood collected in bivalirudin, type III collagen, 1600 s^−1 (Example 8). Format: cell-based. The following applies: bivalirudin alone, 12 μg/mL. As to the method:
As an example of additive antithrombotic benefit achieved when Compound A was combined with a direct thrombin inhibitor, such as bivalirudin, in the following assay, blood was collected in 12 μg/mL bivalirudin (standard therapeutic concentration), incubated with various concentrations of Compound A (0.1, 1 or 10 μM) for 20 mins in the presence of rhodamine 6G (which fluorescently labels platelets), followed by perfusion through a glass capillary coated with collagen (type III) at a fixed shear rate (1600 s^−1). […] FIG. 7 illustrates the combined antithrombotic benefit achieved by the combination of Compound A and bivalirudin.

Setting [8] is: betrixaban 10 mg/kg, oral gavage.

Consider `CNc1cc2[nH]c(=O)n(-c3ccc(NC(=O)NS(=O)(=O)c4ccc(Cl)s4)cc3)c(=O)c2cc1F` [Compound A], for which, in experiment [1] (PK/PD, FIG. 13), the “plasma concentration that did not prevent occlusion” value is “below 1 μg/mL”, the “plasma concentrations of non-effective doses” value is “below 200 ng/mL” and the “plasma levels that prevented vascular occlusion” value is above 1 µg/mL. For the same compound, the “concentration capable of maximal inhibition of platelet aggregation” value in experiment [2] stood at 10 µM. Also, in experiment [2] (Platelet, platelets derived from human donors, n=19, read-out: half maximal inhibition of ADP induced platelet aggregation), the IC50 stood at 4.7 ± 5.1 µM. In experiment [3], the inhibition at 1.1 µM is 23%. The platelet thrombus size entry in experiment [4] is listed as “no significant effect”.
With `COc1ccc(-n2nc(C(N)=O)c3c2C(=O)N(c2ccc(N4CCCCC4=O)cc2)CC3)cc1` [apixaban, 1-(4-methoxyphenyl)-7-oxo-6-(4-(2-oxopiperidin-1-yl)phenyl)-3a,4,5,6,7,7a-hexahydro-1H-pyrazolo[3,4-c]pyridine-3-carboxamide], the “antithrombotic activity in the intravital microscopy thrombosis model in mice” value in experiment [5] is “significant antithrombotic activity”.
As for `COc1ccc(NC(=O)c2ccc(C(=N)N(C)C)cc2)c(C(=O)Nc2ccc(Cl)cn2)c1` [betrixaban, [2-({4-[(dimethylamino)iminomethyl]phenyl}carbonylamino)-5-methoxyphenyl]-N-(5-chloro(2-pyridyl))carboxamide], the non-effective doses entry in experiment [5] (betrixaban) is “below 100 ng/mL”. Further, in experiment [1] (setting [8]), the “time for appearance of first thrombus” value is on record as “significantly delayed” and the time to occlusion result is recorded as “significantly delayed”. For the same compound, the “effect in the thrombosis model” value in experiment [1] (betrixaban 2 and 4 mg/kg, oral gavage) is “non-effective”. Also, the “concentration adequate for equivalent inhibition of thrombin generation as a therapeutic anticoagulant (Pentasaccharide fondaparinux)” value in experiment [6] stood at 31.25 nM.
On to `O=C(NC[C@H]1CN(c2ccc(N3CCOCC3=O)cc2)C(=O)O1)c1ccc(Cl)s1` [rivaroxaban, (5S)-5-chloro-N-((2-oxo-3-(4-(3-oxomorpholino)phenyl)oxazolidin-5-yl)methyl)thiophene-2-carboxamide], for which the “antithrombotic activity in the intravital microscopy thrombosis model in mice” value in experiment [5] is reported as “significant antithrombotic activity”.
As for bivalirudin, the “inhibition of the thrombotic process” value in experiment [7] is listed as “did not significantly inhibit the thrombotic process”.
